{
  "source": "paper PMC10924156",
  "about": "“Design, Preclinical Evaluation, and Clinical Translation of ^68Ga-FAPI-LM3, a Heterobivalent Molecule for PET Imaging of Nasopharyngeal Carcinoma” (Journal of Nuclear Medicine, 2024)",
  "key": {"[1]": {"parameters": "method as in 2 sources, ref 21 = [21]; PMID 30072500; doi:10.2967/jnumed.118.215913; 21. Giesel FL Kratochwil C Lindner T . 68 Ga-FAPI PET/CT: biodistribution and preliminary dosimetry estimate of 2 DOTA-containing FAP-targeting agents in patients with various cancers . J Nucl Med. 20 ||| ref 15 = [15]; PMID 33579804; doi:10.2967/jnumed.120.253096; 15. Zhu W Cheng Y Jia R . A prospective, randomized, double-blind study to evaluate the safety, biodistribution, and dosimetry of 68 Ga-NODAGA-LM3 and 68 Ga-DOTA-LM3 in patients with well-differentiat", "settings": "in vivo; cited from earlier work"}, "Small-animal PET imaging": {"test": "Small-animal PET imaging", "settings": "BALB/c nude, mouse, tumor (HT-1080-FAP plus HT-1080-SSTR2 xenograft), iv, 7.4 MBq, total radioactivity, tumor uptake (PET), i.v. approx 7.4 MBq, 3 mice/group", "description": "(§1) Tumor-bearing mice (3/group) were intravenously injected with approximately 7.4 MBq of ^68Ga-FAPI-LM3, ^68Ga-FAPI-46, or ^68Ga-DOTA-LM3. Subsequent static PET scans were obtained at intervals of 0.5, 1, 2, and 4 h after injection using an Inveon small-animal PET scanner (Siemens). In the blocking experiment, approximately 60 nmol of the unlabeled precursor (FAPI-46, DOTA-LM3, or FAPI-46 plus DOTA-LM3) were simultaneously injected with ^68Ga-FAPI-LM3. The PET images were reconstructed iteratively using 3-dimensional OpMAP 256 (PET reconstruction protocol [.pPetRcn]; Siemens Healthineers AG) and converted to percentage injected dose per gram of tissue (%ID/g) by delineating the regions of interest. For the biodistribution studies, approximately 1.48 MBq of ^68Ga-FAPI-LM3, ^68Ga-FAPI-46, ^68Ga-DOTA-LM3, or ^68Ga-FAPI-LM3 with unlabeled precursor were injected into tumor-bearing mice (3/group), and different groups of mice were euthanized at the scheduled time points after injection."}, "[2]": {"test": "Ex vivo biodistribution study", "settings": "BALB/c nude, mouse, tumor (HT-1080-FAP plus HT-1080-SSTR2 xenograft), 1.48 MBq, total radioactivity", "description": "as §1"}},
  "note": "Positions of bridges follow the written chain, without caps; N, C: chain ends. Non-standard residues stand in square brackets, D forms with d. Residues, ends and D or L forms follow the SMILES beside them. *: point of attachment. DOTA = O=C(O)CN1CCN(CC(=O)O)CCN(CC(=O)*)CCN(CC(=O)O)CC1; dPhe(4-NHCONH2) = NC(=O)Nc1ccc(C[C@@H](N)C(=O)O)cc1; Phe(4-Cl) = N[C@@H](Cc1ccc(Cl)cc1)C(=O)O",
  "data": [
    {"smiles": "C[C@@H](O)[C@@H]1NC(=O)[C@H](CCCCN)NC(=O)[C@@H](Cc2ccc(NC(N)=O)cc2)NC(=O)[C@H](Cc2ccc(O)cc2)NC(=O)[C@H](NC(=O)[C@H](Cc2ccc(Cl)cc2)NC(=O)CN2CCN(CC(=O)O)CCN(CC(=O)O)CCN(CC(=O)O)CC2)CSSC[C@@H](C(=O)N[C@H](Cc2ccc(O)cc2)C(N)=O)NC1=O", "note": "[^68Ga-DOTA-LM3, metal not drawn, reference compound] ({DOTA}-[Phe(4-Cl)][dC]Y[dPhe(4-NHCONH2)]KTC[dY]-NH2; disulfide 2-7)", "values": [
      {"measurement": "effective dose", "setting": "[1]", "result": "2.50 × 10^−2 mSv/MBq"},
      {"measurement": "tissue uptake at 1 h", "setting": "Small-animal PET imaging; 1 h after injection", "result": "5.93 ± 0.5", "unit": "%ID/g"},
      {"measurement": "tissue uptake at 4 h", "setting": "Small-animal PET imaging; 4 h after injection", "result": "4.46 ± 0.57", "unit": "%ID/g"},
      {"measurement": "tissue uptake at 1 h", "setting": "[2]", "result": "7.88 ± 1.1", "unit": "%ID/g"}
    ]}
  ]
}
